# Paper PMC8800111 (The Journal of Biological Chemistry, 2021)
# Like-named read-outs stand apart in the source and are kept apart here.
# What was measured:
# Format in all cases: cell-based
# [1] = target: proteins of U3A human fibrosarcoma cells (4462 proteins detected) (Homo sapiens, UniProt O75937); conditions: protein DNAJC8, U3A cells
# [2] = target: proteins of U3A human fibrosarcoma cells (4462 proteins detected) (Homo sapiens, UniProt P05121); conditions: protein SERPINE1; U3A cells
# [3] = target: proteins of U3A human fibrosarcoma cells (4462 proteins detected) (Homo sapiens, UniProt P51532); conditions: protein SMARCA4; U3A cells
# proteins of U3A human fibrosarcoma cells (4462 proteins detected) (Homo sapiens, UniProt P51532), sequence (P51532 whole entry): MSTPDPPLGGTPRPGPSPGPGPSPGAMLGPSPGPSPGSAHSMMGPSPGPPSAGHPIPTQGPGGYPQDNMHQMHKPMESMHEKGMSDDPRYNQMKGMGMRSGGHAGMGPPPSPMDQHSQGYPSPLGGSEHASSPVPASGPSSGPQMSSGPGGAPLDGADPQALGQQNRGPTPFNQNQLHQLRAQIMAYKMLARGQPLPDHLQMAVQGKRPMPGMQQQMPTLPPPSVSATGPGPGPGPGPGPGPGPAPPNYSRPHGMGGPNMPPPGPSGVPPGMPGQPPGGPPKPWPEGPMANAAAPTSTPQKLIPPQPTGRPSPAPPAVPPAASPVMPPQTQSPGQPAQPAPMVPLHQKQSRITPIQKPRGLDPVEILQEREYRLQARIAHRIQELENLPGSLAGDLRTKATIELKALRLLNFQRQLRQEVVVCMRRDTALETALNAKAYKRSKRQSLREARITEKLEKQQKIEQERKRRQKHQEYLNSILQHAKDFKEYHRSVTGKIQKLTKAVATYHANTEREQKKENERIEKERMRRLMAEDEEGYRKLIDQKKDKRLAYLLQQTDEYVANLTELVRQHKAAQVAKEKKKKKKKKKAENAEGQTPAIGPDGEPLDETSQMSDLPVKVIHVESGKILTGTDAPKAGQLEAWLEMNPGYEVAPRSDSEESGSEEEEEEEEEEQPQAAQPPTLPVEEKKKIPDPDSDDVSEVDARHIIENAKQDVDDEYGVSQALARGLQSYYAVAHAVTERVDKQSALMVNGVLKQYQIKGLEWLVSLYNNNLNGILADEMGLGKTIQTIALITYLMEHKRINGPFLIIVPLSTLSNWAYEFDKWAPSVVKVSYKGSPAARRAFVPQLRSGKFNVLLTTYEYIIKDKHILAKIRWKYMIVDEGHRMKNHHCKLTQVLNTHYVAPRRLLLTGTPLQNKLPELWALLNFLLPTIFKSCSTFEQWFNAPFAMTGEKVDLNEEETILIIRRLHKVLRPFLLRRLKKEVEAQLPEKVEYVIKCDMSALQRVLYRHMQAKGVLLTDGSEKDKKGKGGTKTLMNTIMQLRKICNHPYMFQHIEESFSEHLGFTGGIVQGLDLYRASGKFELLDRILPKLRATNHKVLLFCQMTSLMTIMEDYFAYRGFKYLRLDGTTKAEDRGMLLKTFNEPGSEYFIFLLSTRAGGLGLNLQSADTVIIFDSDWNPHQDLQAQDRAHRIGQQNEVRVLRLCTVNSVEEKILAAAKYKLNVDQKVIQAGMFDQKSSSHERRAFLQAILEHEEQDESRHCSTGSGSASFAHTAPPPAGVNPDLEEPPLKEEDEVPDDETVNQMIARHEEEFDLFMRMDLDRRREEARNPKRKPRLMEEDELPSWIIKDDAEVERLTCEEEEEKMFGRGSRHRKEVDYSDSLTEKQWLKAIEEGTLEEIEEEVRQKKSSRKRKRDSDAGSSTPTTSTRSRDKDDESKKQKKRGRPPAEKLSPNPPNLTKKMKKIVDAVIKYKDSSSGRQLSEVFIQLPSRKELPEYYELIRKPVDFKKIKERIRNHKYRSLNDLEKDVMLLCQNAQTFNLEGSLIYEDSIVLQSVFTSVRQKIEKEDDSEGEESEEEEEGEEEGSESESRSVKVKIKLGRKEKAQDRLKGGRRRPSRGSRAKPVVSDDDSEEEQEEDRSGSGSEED
# [4] = target: proteins of U3A human fibrosarcoma cells (4462 proteins detected) (Homo sapiens, UniProt P54709); conditions: protein ATP1B3; U3A, 10 μM, 2 h
# proteins of U3A human fibrosarcoma cells (4462 proteins detected) (Homo sapiens, UniProt P54709), sequence (P54709 whole entry): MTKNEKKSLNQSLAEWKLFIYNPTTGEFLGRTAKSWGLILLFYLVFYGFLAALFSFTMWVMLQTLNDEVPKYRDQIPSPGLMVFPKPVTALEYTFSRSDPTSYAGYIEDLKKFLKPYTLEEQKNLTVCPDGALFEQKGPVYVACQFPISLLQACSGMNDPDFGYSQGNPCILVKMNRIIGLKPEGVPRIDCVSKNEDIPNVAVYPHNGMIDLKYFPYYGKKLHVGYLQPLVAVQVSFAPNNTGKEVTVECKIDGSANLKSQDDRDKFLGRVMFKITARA
# [5] = target: proteins of U3A human fibrosarcoma cells (4462 proteins detected) (Homo sapiens, UniProt P62701); conditions: protein RPS4X; soluble abundance after heat, U3A cells
# [6] = target: proteins of U3A human fibrosarcoma cells (4462 proteins detected) (Homo sapiens, UniProt Q12874); conditions: protein SF3A3; U3A cells
# [7] = target: proteins of U3A human fibrosarcoma cells (4462 proteins detected) (Homo sapiens, UniProt Q13185); conditions: protein CBX3, U3A cells
# proteins of U3A human fibrosarcoma cells (4462 proteins detected) (Homo sapiens, UniProt Q13185), sequence (Q13185 whole entry): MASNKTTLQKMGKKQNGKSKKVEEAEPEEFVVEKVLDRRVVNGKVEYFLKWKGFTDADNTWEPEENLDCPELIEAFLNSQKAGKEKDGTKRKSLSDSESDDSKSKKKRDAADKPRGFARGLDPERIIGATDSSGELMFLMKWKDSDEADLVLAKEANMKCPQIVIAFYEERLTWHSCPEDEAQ
# [8] = target: proteins of U3A human fibrosarcoma cells (4462 proteins detected) (Homo sapiens, UniProt Q13217); conditions: protein DNAJC3; soluble abundance after heat, U3A cells
# proteins of U3A human fibrosarcoma cells (4462 proteins detected) (Homo sapiens, UniProt Q13217), sequence (Q13217 32-504): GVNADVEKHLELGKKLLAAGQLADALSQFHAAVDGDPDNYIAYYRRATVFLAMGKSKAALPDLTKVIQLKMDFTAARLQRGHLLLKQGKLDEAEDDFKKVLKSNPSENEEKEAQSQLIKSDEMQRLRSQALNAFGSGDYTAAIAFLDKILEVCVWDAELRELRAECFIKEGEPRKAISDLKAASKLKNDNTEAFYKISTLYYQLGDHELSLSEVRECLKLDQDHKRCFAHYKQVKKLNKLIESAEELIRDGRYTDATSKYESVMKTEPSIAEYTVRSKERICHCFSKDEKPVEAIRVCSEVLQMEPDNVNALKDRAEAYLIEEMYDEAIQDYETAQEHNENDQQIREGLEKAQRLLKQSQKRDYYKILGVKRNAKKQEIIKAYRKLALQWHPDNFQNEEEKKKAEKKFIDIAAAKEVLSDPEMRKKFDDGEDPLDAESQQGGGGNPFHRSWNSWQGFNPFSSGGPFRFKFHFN
# [9] = target: proteins of U3A human fibrosarcoma cells (4462 proteins detected) (Homo sapiens, UniProt Q13596); conditions: protein SNX1; U3A cells
# [10] = target: proteins of U3A human fibrosarcoma cells (4462 proteins detected) (Homo sapiens, UniProt Q14161); conditions: protein GIT2; soluble abundance after heat, U3A cells
# [11] = target: proteins of U3A human fibrosarcoma cells (4462 proteins detected) (Homo sapiens, UniProt Q16658); conditions: protein FSCN1, U3A cells
# [12] = target: proteins of U3A human fibrosarcoma cells (4462 proteins detected) (Homo sapiens, UniProt Q16763); conditions: protein UBE2S; U3A, 10 μM, 2 h
# proteins of U3A human fibrosarcoma cells (4462 proteins detected) (Homo sapiens, UniProt Q16763), sequence (Q16763 whole entry): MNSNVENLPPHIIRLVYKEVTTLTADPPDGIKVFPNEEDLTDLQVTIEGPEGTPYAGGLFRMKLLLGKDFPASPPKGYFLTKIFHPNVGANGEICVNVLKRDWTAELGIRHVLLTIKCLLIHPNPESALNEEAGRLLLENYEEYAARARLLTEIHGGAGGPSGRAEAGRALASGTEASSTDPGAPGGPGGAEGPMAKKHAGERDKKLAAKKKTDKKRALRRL
# [13] = target: proteins of U3A human fibrosarcoma cells (4462 proteins detected) (Homo sapiens, UniProt Q1ED39); conditions: protein KNOP1; U3A cells
# [14] = target: proteins of U3A human fibrosarcoma cells (4462 proteins detected) (Homo sapiens, UniProt Q53H96); conditions: protein PYCRL; U3A, 10 μM, 2 h
# [15] = target: proteins of U3A human fibrosarcoma cells (4462 proteins detected) (Homo sapiens, UniProt Q8N465); conditions: protein D2HGDH; soluble abundance after heat, U3A cells
# [16] = target: proteins of U3A human fibrosarcoma cells (4462 proteins detected) (Homo sapiens, UniProt Q8TF74); conditions: protein WIPF2, U3A cells
# [17] = target: proteins of U3A human fibrosarcoma cells (4462 proteins detected) (Homo sapiens, UniProt Q96AT1); conditions: protein KIAA1143; U3A, 10 μM, 2 h
# [18] = target: proteins of U3A human fibrosarcoma cells (4462 proteins detected) (Homo sapiens, UniProt Q9BSL1); conditions: protein UBAC1; soluble abundance after heat, U3A cells
# [19] = target: proteins of U3A human fibrosarcoma cells (4462 proteins detected) (Homo sapiens, UniProt Q9BUL8); conditions: protein PDCD10; soluble abundance after heat, U3A cells
# [20] = target: proteins of U3A human fibrosarcoma cells (4462 proteins detected) (Homo sapiens, UniProt Q9BW91); conditions: protein NUDT9, U3A cells
# [21] = target: proteins of U3A human fibrosarcoma cells (4462 proteins detected) (Homo sapiens, UniProt Q9H900); conditions: protein ZWILCH; U3A cells
# proteins of U3A human fibrosarcoma cells (4462 proteins detected) (Homo sapiens, UniProt Q9H900), sequence (Q9H900 whole entry): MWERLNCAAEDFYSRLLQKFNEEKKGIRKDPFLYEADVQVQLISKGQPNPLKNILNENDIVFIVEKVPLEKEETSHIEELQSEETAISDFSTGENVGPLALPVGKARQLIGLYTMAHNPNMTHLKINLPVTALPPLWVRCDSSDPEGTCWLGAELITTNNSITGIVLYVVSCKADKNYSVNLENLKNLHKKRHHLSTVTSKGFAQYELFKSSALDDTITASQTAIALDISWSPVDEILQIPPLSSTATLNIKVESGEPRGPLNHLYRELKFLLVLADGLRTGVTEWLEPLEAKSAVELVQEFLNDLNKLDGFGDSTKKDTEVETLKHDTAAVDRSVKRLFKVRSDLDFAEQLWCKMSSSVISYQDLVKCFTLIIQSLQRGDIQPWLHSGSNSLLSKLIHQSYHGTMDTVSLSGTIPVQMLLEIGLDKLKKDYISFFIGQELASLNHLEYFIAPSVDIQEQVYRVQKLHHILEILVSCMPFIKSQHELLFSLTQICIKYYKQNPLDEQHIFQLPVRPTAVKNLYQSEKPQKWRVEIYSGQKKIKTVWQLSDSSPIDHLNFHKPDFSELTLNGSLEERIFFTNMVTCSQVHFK
# [22] = target: proteins of U3A human fibrosarcoma cells (4462 proteins detected) (Homo sapiens, UniProt Q9H9Y6); conditions: protein POLR1B; soluble abundance after heat, U3A cells
# proteins of U3A human fibrosarcoma cells (4462 proteins detected) (Homo sapiens, UniProt Q9H9Y6), sequence (Q9H9Y6 whole entry): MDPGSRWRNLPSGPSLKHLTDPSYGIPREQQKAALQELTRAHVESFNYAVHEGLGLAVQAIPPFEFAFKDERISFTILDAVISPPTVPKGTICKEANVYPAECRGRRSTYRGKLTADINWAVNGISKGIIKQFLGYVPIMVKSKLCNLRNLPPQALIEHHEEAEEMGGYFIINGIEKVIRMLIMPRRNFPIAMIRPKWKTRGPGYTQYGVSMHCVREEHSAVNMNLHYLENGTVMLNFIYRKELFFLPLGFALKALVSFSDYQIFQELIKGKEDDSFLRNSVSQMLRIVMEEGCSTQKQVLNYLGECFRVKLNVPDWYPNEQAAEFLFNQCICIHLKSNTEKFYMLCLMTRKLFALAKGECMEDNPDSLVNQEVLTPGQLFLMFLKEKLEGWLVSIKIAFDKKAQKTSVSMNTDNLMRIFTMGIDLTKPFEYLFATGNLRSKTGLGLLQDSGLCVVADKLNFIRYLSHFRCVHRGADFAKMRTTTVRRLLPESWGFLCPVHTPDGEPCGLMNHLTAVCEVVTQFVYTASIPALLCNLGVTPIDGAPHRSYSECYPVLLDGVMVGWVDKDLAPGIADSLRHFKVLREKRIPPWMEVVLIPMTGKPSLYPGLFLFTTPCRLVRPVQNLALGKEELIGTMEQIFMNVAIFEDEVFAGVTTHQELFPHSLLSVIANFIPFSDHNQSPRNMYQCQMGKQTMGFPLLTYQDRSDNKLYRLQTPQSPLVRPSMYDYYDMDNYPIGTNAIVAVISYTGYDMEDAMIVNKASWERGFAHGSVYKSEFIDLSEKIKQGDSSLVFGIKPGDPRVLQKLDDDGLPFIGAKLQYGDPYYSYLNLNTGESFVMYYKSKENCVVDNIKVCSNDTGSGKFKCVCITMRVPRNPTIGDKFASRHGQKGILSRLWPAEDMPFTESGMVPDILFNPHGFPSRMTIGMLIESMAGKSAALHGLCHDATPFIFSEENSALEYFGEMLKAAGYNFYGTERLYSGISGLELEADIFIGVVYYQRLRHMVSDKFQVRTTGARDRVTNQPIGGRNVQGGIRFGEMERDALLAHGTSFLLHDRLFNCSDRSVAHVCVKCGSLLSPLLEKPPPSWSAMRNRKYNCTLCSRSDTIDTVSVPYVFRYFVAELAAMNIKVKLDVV
# [23] = target: proteins of U3A human fibrosarcoma cells (4462 proteins detected) (Homo sapiens, UniProt Q9NXV6); conditions: protein CDKN2AIP; U3A cells
# [24] = target: proteins of U3A human fibrosarcoma cells (4462 proteins detected) (Homo sapiens, UniProt Q9NYJ1); conditions: protein COA4; U3A cells
# proteins of U3A human fibrosarcoma cells (4462 proteins detected) (Homo sapiens, UniProt Q9NYJ1), sequence (Q9NYJ1 whole entry): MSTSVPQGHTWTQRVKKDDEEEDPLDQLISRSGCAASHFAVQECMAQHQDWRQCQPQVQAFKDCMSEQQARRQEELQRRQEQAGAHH
# [25] = target: proteins of U3A human fibrosarcoma cells (4462 proteins detected) (Homo sapiens, UniProt Q9UQR1); conditions: protein ZNF148; U3A, 10 μM, 2 h
# [26] = system: proteins of U3A human fibrosarcoma cells (4462 proteins detected)
# proteins of U3A human fibrosarcoma cells (4462 proteins detected) (Homo sapiens, UniProt O75937), sequence (O75937 whole entry): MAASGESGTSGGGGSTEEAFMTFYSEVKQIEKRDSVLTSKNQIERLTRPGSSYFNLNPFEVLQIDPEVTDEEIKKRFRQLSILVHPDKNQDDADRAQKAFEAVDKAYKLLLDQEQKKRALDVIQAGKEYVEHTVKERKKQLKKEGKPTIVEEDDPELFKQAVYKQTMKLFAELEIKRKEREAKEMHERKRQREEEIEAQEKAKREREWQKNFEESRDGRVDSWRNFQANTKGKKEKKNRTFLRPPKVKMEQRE
smiles,measurement,setting,value
CCc1nc(N)nc(N)c1-c1ccc(Cl)cc1 [pyrimethamine],Log2 (PYR/DMSO),[1],-0.05
same,Log2 (PYR/DMSO),[2],0.19
same,Log2 (PYR/DMSO),[3],0.16
same,"Log2 (PYR/DMSO), ATP1B3",[4],0.27
same,Log2 (PYR/DMSO),[5],0.14
same,Log2 (PYR/DMSO),[6],0.18
same,Log2 (PYR/DMSO),[7],-0.05
same,Log2 (PYR/DMSO),[8],0.14
same,Log2 (PYR/DMSO),[9],0.17
same,Log2 (PYR/DMSO),[10],0.14
same,Log2 (PYR/DMSO),[11],-0.04
same,"Log2 (PYR/DMSO), UBE2S",[12],0.25
same,Log2 (PYR/DMSO),[13],0.17
same,"Log2 (PYR/DMSO), PYCRL",[14],-0.15
same,Log2 (PYR/DMSO),[15],0.15
same,Log2 (PYR/DMSO),[16],-0.05
same,"Log2 (PYR/DMSO), KIAA1143",[17],-0.16
same,Log2 (PYR/DMSO),[18],0.13
same,Log2 (PYR/DMSO),[19],0.15
same,Log2 (PYR/DMSO),[20],-0.04
same,Log2 (PYR/DMSO),[21],0.22
same,Log2 (PYR/DMSO),[22],0.13
same,Log2 (PYR/DMSO),[23],0.16
same,Log2 (PYR/DMSO),[24],0.18
same,"Log2 (PYR/DMSO), ZNF148",[25],0.26
same,Log2 (PYR/DMSO),"[26]; protein AGO2, AGO1, AGO3, AGO4, soluble abundance after heat, U3A cells",0.14
same,"Log2 (PYR/DMSO), ANXA8L1; ANXA8L2; ANXA8","[26]; protein ANXA8L1, ANXA8L2, ANXA8, U3A, 10 μM, 2 h",-0.40
same,"Log2 (PYR/DMSO), ATP2A2; ATP2A1; ATP2A3","[26]; protein ATP2A2, ATP2A1, ATP2A3, U3A, 10 μM, 2 h",0.28
same,Log2 (PYR/DMSO),"[26]; protein CUX1, U3A cells",0.20
same,Log2 (PYR/DMSO),"[26]; protein DHRS4, DHRS4L1, soluble abundance after heat, U3A cells",0.13
same,Log2 (PYR/DMSO),"[26]; protein EIF3C, EIF3CL, U3A cells",0.18
same,Log2 (PYR/DMSO),"[26]; protein Em:AP000351.3, GSTT2, GSTT2B, U3A cells",-0.05
same,Log2 (PYR/DMSO),"[26]; protein H2AFX, HIST1H2AJ, HIST1H2AH, H2AFJ, HIST2H2AC, HIST1H2AC, HIST3H2A, HIST2H2AA3, HIST1H2AD, HIST1H2AG, HIST1H2AB, HIST1H2AA, HIST2H2AB, U3A cells",0.19
same,Log2 (PYR/DMSO),"[26]; protein HIST2H3A, HIST3H3, HIST1H3A, H3F3B, H3F3A, HIST2H3PS2, H3F3C, U3A cells",0.22
same,Log2 (PYR/DMSO),"[26]; protein HPCAL1, HPCA, soluble abundance after heat, U3A cells",0.15
same,Log2 (PYR/DMSO),"[26]; protein KHDRBS1, KHDRBS2, soluble abundance after heat, U3A cells",0.14
same,"Log2 (PYR/DMSO), KIAA2012; SPEG","[26]; protein KIAA2012, SPEG, U3A, 10 μM, 2 h",0.26
same,Log2 (PYR/DMSO),"[26]; protein MOCS2, U3A cells",-0.04
same,Log2 (PYR/DMSO),"[26]; protein POLR2J3, POLR2J, POLR2J2, U3A cells",-0.04
same,Log2 (PYR/DMSO),"[26]; protein POM121C, POM121, POMZP3, soluble abundance after heat, U3A cells",0.14
same,Log2 (PYR/DMSO),"[26]; protein PPP1R2, PPP1R2P3, U3A cells",-0.04
same,"Log2 (PYR/DMSO), PRSS1; PRSS3P2; PRSS2","[26]; protein PRSS1, PRSS3P2, PRSS2, U3A, 10 μM, 2 h",-0.20
same,"Log2 (PYR/DMSO), SLC25A5; SLC25A4; SLC25A6; SLC25A31","[26]; protein SLC25A5, SLC25A4, SLC25A6, SLC25A31, U3A, 10 μM, 2 h",0.31
same,Log2 (PYR/DMSO),"[26]; protein UBE2Q1, UBE2Q2, U3A cells",0.20
